From PMC9851200, “Multiparameter phenotypic screening for endogenous TFEB and TFE3 translocation identifies novel chemical series modulating lysosome function” (Autophagy, 2022) come the findings set out here.

Structures are written as SMILES. Read-outs that look alike come from different tables or passages of the source.

Holding throughout (conditions): PKIS2 primary screening
In one data set the test system is endogenous TFEB. The experiment in a line: TFEB nuclear translocation, immunocytochemistry high-content imaging. Type of data set: cell-based.
A further data set relates to endogenous TFE3. The experiment in a line: TFE3 nuclear translocation, immunocytochemistry high-content imaging. Type of data set: cell-based.
Data set [1] relates to SH-SY5Y cells.
Excerpt: The PKIS2 Library was supplied by The Structural Genomics Consortium at the University of North Carolina at Chapel Hill.
The test system of data set [2] is SH-SY5Y cells. In words: AK (adenylate kinase) release ToxiLight cytotoxicity assay. Also: reference of the scale not given here.
Data set [3] deals with SH-SY5Y cells. In words: Nuclear count from microscopy images (cellular growth and toxicity). Also: reference of the scale not given here.
For DQ Intensity in this document: reference of the scale not given here.
For DQ Spot in this document: reference of the scale not given here.

The molecule `Nc1ncnc2[nH]c(-c3ccccc3)nc12` [UNC10243863A] had a TFEB % in the data set with endogenous TFEB of 9.65%. Moreover, in the data set with endogenous TFE3, the TFE3 % was 10.89%. For the same molecule, in the data set on SH-SY5Y cells [1], the “DQ Intensity” value came to 154.91 and the “DQ Spot” value is recorded as 119.26. In addition, in the data set on SH-SY5Y cells [2], the AK turned out to be 85.62. Also, in the data set with SH-SY5Y cells [3], the “Nuclear Count” value was 66.20.
Turning to `CN1CCN(Cc2ccc(NC(=O)Nc3ccc(N(C)c4ccnc(Nc5ccc(CS(C)(=O)=O)cc5)n4)cc3)cc2)CC1` [GW827654], the TFEB % in the data set on endogenous TFEB was 6.08%. In the data set with endogenous TFE3, the TFE3 % was found to be 10.58%. For the same molecule, the “DQ Intensity” value in the data set with SH-SY5Y cells [1] (DQ Red BSA intensity) was found to be 92.35. Moreover, in the data set with SH-SY5Y cells [1] (DQ Red BSA spot count), the “DQ Spot” value turned out to be 93.05. The same molecule displayed an AK with SH-SY5Y cells [2] of 74.74. The “Nuclear Count” value with SH-SY5Y cells [3] was 120.62.
Regarding `COc1cc(Nc2ncc3c(C)nc(-c4cc5ccccc5[nH]4)n3n2)cc(OC)c1OC` [UNC10225084A], the TFEB % in the data set on endogenous TFEB came to 3.01%. The molecule further registered a TFE3 % in the data set on endogenous TFE3 of 14.67%. In the data set with SH-SY5Y cells [1], the “DQ Intensity” value is listed as 112.41 and the “DQ Spot” value came to 111.83. The AK in the data set on SH-SY5Y cells [2] worked out at 112.96. The “Nuclear Count” value in the data set with SH-SY5Y cells [3] is 82.05.
Take `Fc1ccc(-c2nc[nH]c2-c2ccncc2)cc1` [UNC10225418A]: in the data set with endogenous TFEB, the TFEB % was 7.46%. This molecule also registered a TFE3 % with endogenous TFE3 of 16.61%. For the same molecule, the “DQ Intensity” value in the data set with SH-SY5Y cells [1] (DQ Red BSA intensity) was 103.88. In the data set on SH-SY5Y cells [1] (DQ Red BSA spot count), the “DQ Spot” value is reported as 114.99. The molecule also registered an AK in the data set on SH-SY5Y cells [2] of 94.96. In addition, the “Nuclear Count” value in the data set on SH-SY5Y cells [3] is 56.56.
`Nc1nc(-c2ccc3c(N)n[nH]c3c2)cc(N2CCC[C@@H](C(=O)Nc3ccccc3)C2)n1` [GSK2288359]: the TFEB % with endogenous TFEB stood at 6.39%. The TFE3 % in the data set with endogenous TFE3 came out at 14.08%. For the same molecule, the “DQ Intensity” value in the data set with SH-SY5Y cells [1] (DQ Red BSA intensity) worked out at 83.69. Moreover, the “DQ Spot” value in the data set on SH-SY5Y cells [1] (DQ Red BSA spot count) turned out to be 103.68. The AK in the data set on SH-SY5Y cells [2] was 96.03. In addition, the “Nuclear Count” value with SH-SY5Y cells [3] worked out at 88.88.
Turning to `COc1cc2ncn(-c3cc(OCC4CCCO4)c(C(N)=O)s3)c2cc1OC` (stereo not drawn) [UNC10225372A], the TFEB % in the data set with endogenous TFEB was 6.13%. The TFE3 % with endogenous TFE3 worked out at 10.50%. In the data set with SH-SY5Y cells [1], the “DQ Intensity” value came to 86.61 and the “DQ Spot” value came out at 87.29. This molecule also came in with an AK with SH-SY5Y cells [2] of 162.91. Besides, in the data set with SH-SY5Y cells [3], the “Nuclear Count” value is listed as 102.24.
Consider `N#Cc1ccc(-c2cc(-c3c[nH]nc3-c3ccccn3)ccn2)cc1` [UNC10225072A], for which, in the data set on endogenous TFEB, the TFEB % is on record as 2.62%. Besides, in the data set on endogenous TFE3, the TFE3 % amounted to 14.52%. Moreover, in the data set with SH-SY5Y cells [1] (DQ Red BSA intensity), the “DQ Intensity” value was 58.59. In addition, in the data set with SH-SY5Y cells [1] (DQ Red BSA spot count), the “DQ Spot” value is 75.50. The same molecule gave an AK in the data set with SH-SY5Y cells [2] of 65.14. Further, in the data set on SH-SY5Y cells [3], the “Nuclear Count” value is reported as 116.96.
Molecule `O=C(Nc1cccc(-c2nn3ccccc3c2-c2ccnc(Nc3cccc(F)c3)n2)c1)c1c(F)ccc(F)c1Cl` [UNC10225081A] registered a TFEB % with endogenous TFEB of 11.80%. The molecule further registered a TFE3 % in the data set with endogenous TFE3 of 13.17%. Also, in the data set on SH-SY5Y cells [1], the “DQ Intensity” value stood at 135.52 and the “DQ Spot” value is 127.57. The molecule also gave an AK with SH-SY5Y cells [2] of 69.78. Besides, the “Nuclear Count” value in the data set with SH-SY5Y cells [3] was determined as 54.18.
Molecule `Cc1cc(-c2c(-c3ccc(F)cc3)ncn2CCCN2CCOCC2)nc(N)n1` [UNC10225357A] gave a TFEB % in the data set with endogenous TFEB of 6.16%. In addition, the TFE3 % with endogenous TFE3 was 18.76%. For the same molecule, in the data set on SH-SY5Y cells [1], the “DQ Intensity” value was determined as 102.69 and the “DQ Spot” value turned out to be 106.97. Further, the AK in the data set on SH-SY5Y cells [2] worked out at 146.53. Further, the “Nuclear Count” value in the data set on SH-SY5Y cells [3] stood at 103.52.
On to `Cc1nccc(-c2c(-c3ccc(F)cc3)ncn2CCCN2CCOCC2)n1.Cl` [UNC10225493A], for which the TFEB % with endogenous TFEB was 4.71%. Further, the TFE3 % in the data set on endogenous TFE3 stood at 13.96%. Moreover, in the data set with SH-SY5Y cells [1], the “DQ Intensity” value is 90.01 and the “DQ Spot” value turned out to be 96.19. Besides, the AK with SH-SY5Y cells [2] turned out to be 100.35. The “Nuclear Count” value in the data set with SH-SY5Y cells [3] was determined as 97.00.
In turn, `COc1ccc(CNC(=O)NC2CCN(c3ccnc(Nc4cc(OC)c(OC)c(OC)c4)n3)C2)cc1` (stereo not drawn) [GSK1379748] yielded a TFEB % in the data set on endogenous TFEB of 3.68%. In the data set on endogenous TFE3, this molecule yielded a TFE3 % of 7.30%. Moreover, the “DQ Intensity” value in the data set on SH-SY5Y cells [1] (DQ Red BSA intensity) is given as 92.45. Moreover, in the data set with SH-SY5Y cells [1] (DQ Red BSA spot count), the “DQ Spot” value stood at 91.07. In the data set with SH-SY5Y cells [2], this molecule displayed an AK of 124.35. Besides, the “Nuclear Count” value with SH-SY5Y cells [3] stood at 99.04.
The molecule `Cc1ccc(CC(=O)N2CCc3cc(-c4cn(C)c5ncnc(N)c45)ccc32)cc1` [UNC10225490A] gave a TFEB % in the data set with endogenous TFEB of 5.80%. For the same molecule, the TFE3 % with endogenous TFE3 was determined as 14.69%. Besides, in the data set on SH-SY5Y cells [1], the “DQ Intensity” value is given as 104.55 and the “DQ Spot” value was determined as 111.62. In the data set with SH-SY5Y cells [2], this molecule displayed an AK of 123.53. Also, the “Nuclear Count” value in the data set with SH-SY5Y cells [3] was determined as 101.02.
For the molecule `Cc1ccc(NC(=O)c2ccnc(N3CCN(C)CC3)c2)cc1-c1ccc(C(=O)NCC2CC2)cc1` [UNC10225009A], the TFEB % in the data set with endogenous TFEB was 4.01%. In the data set with endogenous TFE3, this molecule showed a TFE3 % of 12.99%. Besides, in the data set with SH-SY5Y cells [1], the “DQ Intensity” value was 132.78 and the “DQ Spot” value is reported as 99.28. Further, the AK in the data set on SH-SY5Y cells [2] is listed as 154.31. Further, the “Nuclear Count” value with SH-SY5Y cells [3] amounted to 101.80.
